In patent US11685720B2, “Salt forms of URAT-1 inhibitors” (INVENTISBIO CO., LTD., priority 2018, dated 2023):
≈ marks a conversion by molar mass, not a printed value.

Experiments:
Format in all cases: physicochemical
[1] = Dynamic moisture sorption (DVS); conditions: at 80% RH
Procedure: DYNAMIC MOISTURE SORPTION: Dynamic moisture adsorption and desorption were studied using IGA sorp (Hiden Isochema Ltd. Warrington, UK). About 3-5 mg of prepared sample was placed in a sample basket and hung in the measuring chamber of an IGA Sorp. For an isotherm test, the chamber temperature is maintained by a water bath at constant 25±1° C. The sample was tested at a targeted RH of 10 to 90% full cycle in step mode. The analysis was performed in 10% RH increments. Time duration at each RH was set as min.30 minutes to max. 120 min, so that the sample could reach equilibrium with the chamber environment. Data was collected in 3 minutes increment.

[2] = Solubility test by visual observation; conditions: thermodynamic from solid; for solubility: both water and pH 6.8 buffer; for solubility at 0.5 h: visual observation
Procedure: The solubilities of 1-Na and 1-K salts were very high, so the solubility was determined by visual observation. Weighed about 5 mg of sample solid (1-Na or 1-K salt) into a 2 mL of vial, and then added 5 uL of pH 6.8 buffer solution or water each time until the solids was dissolved.
(§1) The solubilities of the three salts and the Compound 1 were studied in pH 6.8 buffer and water, and the data was summarized in Table 5.

[3] = Solubility test, suspension filtered and filtrate analyzed by HPLC; conditions: thermodynamic from solid, 25° C.
Procedure: The suspension was centrifuged under 200 rpm at 25° C., and 0.3 mL to 0.5 mL of […]. At each time point, the suspension was filtered to remove solid, and the filtrate was analyzed by HPLC.
as §1

| Structure (SMILES) | Water adsorbed (hygroscopicity) [1] [%] | solubility ([2]; aqueous buffer) [µg/mL] | solubility at 0.5 h ([2]; aqueous buffer, pH 6.8 buffer) [µg/mL] | solubility at 0.5 h ([2]; water) [µg/mL] | solubility at 0.5 h ([3]; aqueous buffer, pH 6.8 buffer) [µg/mL] | solubility at 2 h ([3]; aqueous buffer, pH 6.8 buffer) [µg/mL] | solubility at 0.5 h ([3]; water) [µg/mL] | solubility at 2 h ([3]; water) [µg/mL] |
| --- | --- | --- | --- | --- | --- | --- | --- | --- |
| N#Cc1ccc(-c2cnccc2SCC2(CC(=O)[O-])CC2)cc1.[Na+] [1-Na salt, sodium 2-(1-(((3-(4-cyanophenyl)pyridin-4-yl)thio)methyl)cyclopropyl)acetate] | 8.28 | > 400000 | > 400000 | > 400000 | – | – | – | – |
| N#Cc1ccc(-c2cnccc2SCC2(CC(=O)[O-])CC2)cc1.[K+] [1-K salt, potassium 2-(1-(((3-(4-cyanophenyl)pyridin-4-yl)thio)methyl)cyclopropyl)acetate] | 50.63 | > 400000 | > 400000 | > 400000 | – | – | – | – |
| N#Cc1ccc(-c2cnccc2SCC2(CC(=O)O)CC2)cc1 [Compound 1, 2-(1-(((3-(4-cyanophenyl)pyridin-4-yl)thio)methyl)cyclopropyl)acetic acid] | – | – | – | – | 83 (≈ 256 µM) | 84 (≈ 259 µM) | 19 (≈ 58.6 µM) | 34 (≈ 105 µM) |
